This note sets out measurements from US7998965B2, “Glutamate aggrecanase inhibitors” (Wyeth LLC, priority 2005, dated 2011).

In assay [1] the target is T1, recombinant human catalytic domain of MMP-13 (Homo sapiens, UniProt P45452).
T1 construct: catalytic domain of MMP-13 (165 amino acids, residues 104-268, 19 kDa)
The assay is described as follows: In vitro fluorescence assay of MMP-13 activity. The assay is classed as biochemical.

In assay [2] the target is T2, purified recombinant human Aggrecanase-2 (Ag2t-Phe628-Strep) (Homo sapiens, UniProt Q9UNA0).
T2 construct: the form used is denoted as Ag2t-Phe628-Strep (MW=41,737)
T2 sequence (Q9UNA0 262-628): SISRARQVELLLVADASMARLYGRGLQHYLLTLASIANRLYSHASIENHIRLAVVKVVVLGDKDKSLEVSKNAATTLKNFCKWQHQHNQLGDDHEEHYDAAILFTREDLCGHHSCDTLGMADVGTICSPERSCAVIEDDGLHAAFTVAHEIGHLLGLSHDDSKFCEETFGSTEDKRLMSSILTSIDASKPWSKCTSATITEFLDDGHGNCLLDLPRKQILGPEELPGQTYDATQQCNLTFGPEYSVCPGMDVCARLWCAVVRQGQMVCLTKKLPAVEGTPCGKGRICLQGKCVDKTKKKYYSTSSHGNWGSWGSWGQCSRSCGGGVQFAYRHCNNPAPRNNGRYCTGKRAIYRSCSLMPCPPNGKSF
Put plainly: In vitro fluorescence screen for Aggrecanase-2 inhibitors. In kind it is biochemical. Particulars: read-out: Agg 2 IC50.

Assay [3] has as its target T3, recombinant human MMP-2 (Homo sapiens, UniProt P08253).
T3 sequence (P08253 110-660): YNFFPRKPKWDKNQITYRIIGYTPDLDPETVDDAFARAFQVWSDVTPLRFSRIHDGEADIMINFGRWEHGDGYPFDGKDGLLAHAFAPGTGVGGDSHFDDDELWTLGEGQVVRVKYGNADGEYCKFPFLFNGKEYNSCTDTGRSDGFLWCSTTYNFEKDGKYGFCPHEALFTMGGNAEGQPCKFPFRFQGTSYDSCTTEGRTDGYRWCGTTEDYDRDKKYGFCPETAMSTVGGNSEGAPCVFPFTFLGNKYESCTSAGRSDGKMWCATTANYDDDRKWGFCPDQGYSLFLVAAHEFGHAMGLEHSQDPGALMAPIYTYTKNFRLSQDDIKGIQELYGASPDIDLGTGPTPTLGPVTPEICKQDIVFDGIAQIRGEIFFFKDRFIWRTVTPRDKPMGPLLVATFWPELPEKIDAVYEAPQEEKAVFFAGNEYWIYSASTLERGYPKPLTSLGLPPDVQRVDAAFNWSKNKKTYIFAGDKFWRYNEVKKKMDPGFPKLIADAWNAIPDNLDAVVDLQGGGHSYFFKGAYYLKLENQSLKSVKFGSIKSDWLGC
The assay is described as follows: In vitro fluorescence assay of MMP-2 activity.

For assay [4], the target named is T4, purified recombinant human Aggrecanase-1 (rAgg1) (Homo sapiens, UniProt O75173).
T4 sequence (O75173 213-837): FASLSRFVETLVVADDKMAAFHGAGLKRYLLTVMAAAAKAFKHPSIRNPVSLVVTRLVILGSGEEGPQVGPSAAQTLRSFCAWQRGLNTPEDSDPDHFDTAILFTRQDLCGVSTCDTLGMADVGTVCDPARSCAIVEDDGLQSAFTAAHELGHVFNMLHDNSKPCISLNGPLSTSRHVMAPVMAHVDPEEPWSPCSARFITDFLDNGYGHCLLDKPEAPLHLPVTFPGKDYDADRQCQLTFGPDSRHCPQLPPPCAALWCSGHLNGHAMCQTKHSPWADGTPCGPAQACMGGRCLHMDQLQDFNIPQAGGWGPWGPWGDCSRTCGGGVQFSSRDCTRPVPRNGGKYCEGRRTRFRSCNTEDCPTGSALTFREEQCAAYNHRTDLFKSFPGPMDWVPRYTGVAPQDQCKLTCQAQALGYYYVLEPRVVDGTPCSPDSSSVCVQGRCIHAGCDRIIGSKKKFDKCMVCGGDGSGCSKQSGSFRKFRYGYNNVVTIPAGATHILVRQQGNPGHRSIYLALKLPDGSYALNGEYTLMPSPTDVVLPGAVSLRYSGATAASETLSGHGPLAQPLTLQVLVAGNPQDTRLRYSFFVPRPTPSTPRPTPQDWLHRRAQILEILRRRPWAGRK
The assay is described as follows: In vitro fluorescence screen for Aggrecanase-1 inhibitors. Particulars: for IC50: read-out: Agg1 IC50. The assay is classed as biochemical.

For assay [5], the target named is T5, recombinant human catalytic domain of MMP-14 (Homo sapiens, UniProt P50281).
T5 construct: 177 amino acids corresponding to Tyr89-Gly265 of mature human enzyme; purchased Chemicon International, Inc. CC1041
The assay is described as follows: In vitro fluorescence assay of MMP-14 activity. The assay is classed as biochemical. Conditions: Table 1; for IC50: unit inferred.

In assay [6] the target is T6, MMP-1 (Homo sapiens, UniProt P03956).
T6 sequence (P03956 100-469): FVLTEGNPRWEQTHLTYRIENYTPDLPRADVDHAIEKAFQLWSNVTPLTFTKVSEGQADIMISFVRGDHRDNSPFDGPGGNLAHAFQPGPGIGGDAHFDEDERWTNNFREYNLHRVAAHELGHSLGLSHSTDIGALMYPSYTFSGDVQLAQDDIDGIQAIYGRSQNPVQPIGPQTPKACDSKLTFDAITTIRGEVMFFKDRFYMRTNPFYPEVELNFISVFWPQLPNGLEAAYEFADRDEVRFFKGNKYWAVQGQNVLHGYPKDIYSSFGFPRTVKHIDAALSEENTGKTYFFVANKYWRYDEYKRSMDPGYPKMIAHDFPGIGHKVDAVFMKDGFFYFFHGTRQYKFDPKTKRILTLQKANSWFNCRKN
Put plainly: MMP-1 of Table 1. Particulars: for IC50: unit inferred; for MMP-1: unit not given. In kind it is biochemical.

Assay [7] deals with bovine articular cartilage treated with Interleukin 1 alpha (IL-1α). Put plainly: Bovine articular cartilage explant cultures: inhibition of degradation of proteoglycan. In kind it is cell-based. Particulars: inhibitory effect expressed as percentage, concentration not printed. The source says:
This in vitro procedure was used to evaluate the effect and relative potencies of small molecule compounds to inhibit the degradation of proteoglycan in articular cartilage treated with Interleukin 1 alpha (IL-1α). Treatment of articular cartilage with IL 1α induces expression of a cascade of enzymes that initiates cartilage matrix degradation. This assay was utilized to select small molecule compounds that inhibit the enzyme activity and protects cartilage matrix degradation.
Articular cartilage: bovine metacarpal joints were disinfected with 10% Wescodyne followed by 70% ethanol. 6 mm articular cartilage discs were prepared and rinsed once in PBS and medium, respectively. The discs were cultured in a stirring flask with serum-free medium for 5 days for equilibrium with one medium change. Small molecule compounds: stock solutions of test small molecule compounds (usually at 5 mg/ml) were prepared in DMSO. Working solutions were diluted with DMSO and generally ranged from 0.1 μg/ml to 10 ug/ml. The DMSO stocks were stored at […]. Articular cartilage explant culture medium: DMEM, 2 mM glutamax, 100 U/ml of antibiotic and antimycotic, 50 μg/ml ascorbate and 10 mM Hepes (pH-7.0). Proteoglycan content-Dimethyl methylene blue (DMMB) solution: […] DMMB, 10 ml 100% ethanol, 29.5 ml of 1M NaOH, 3.5 ml of 98% formic acid and water to 1 L. Chondroitin sulphate sodium salt: 1.56-200 ug/ml serial dilutions.
For the explant culture, cartilage discs were cultured in serum-free medium for 48 h or more. Discs were weighed and transferred to a 96-well plate, 1 disc per-well. 0.2 ml of medium containing 5 ng/ml of IL-1 and different concentrations of compounds were added to each well, with 3 wells allocated for each treatment. The medium was collected at days 1, 2, & 3 and replaced accordingly.
For the DMMB assay, conditioned medium (CM) samples were diluted with medium. 10 ul of each standard or diluted sample was added in duplicate into a 96-well-plate and 200 μl of DMMB solution was added into each well. Absorbance at 520 nm was measured for each well. Proteoglycan contents in CM were calculated daily.
The proteoglycan contents are expressed as ug per mg of cartilage. The inhibitory effect of the compounds is expressed as percentage. (See, Tortorella, M. D. et al., Science 1999, 284, 1664-1666).

Where [8] appears, read: Table 2, nM printed in one cell only.
Setting [9] is: Table 1, first of two columns headed bovine.
Where [10] appears, read: Table 1, second of two columns headed bovine.

Where two headings read alike, the source gives them in different places.

`O=C(O)CC[C@H](NC(=O)c1ccc(-c2ccccc2)cc1)C(=O)NC1Cc2ccccc2C1` [Example 6A, N^2-(1,1′-biphenyl-4-ylcarbonyl)-N^1-2,3-dihydro-1H-inden-2-yl-L-α-glutamine]: the IC50 – broadly, the concentration that gives 50% inhibition – was over 50000 nM in assay [1] (Table 1, unit inferred); 740 nM in assay [2] (Table 1); 29800 nM in assay [3]; 150 nM in assay [4] (Table 1); over 200000 nM in assay [5]; over 50000 nM in assay [6].

For `COc1cccc(CCNC(=O)[C@H](CCC(=O)NO)NC(=O)c2ccc(-c3ccccc3)cc2)c1` [Example 33C, N^2-(1,1′-biphenyl-4-ylcarbonyl)-N^5-hydroxy-N^1-[2-(3-methoxyphenyl)ethyl]-L-α-glutamamide], the IC50 was 29 nM in assay [1] (Table 1, unit inferred); 25 nM in assay [2] (Table 1); under 10 nM in assay [4] (Table 1); 110 nM in assay [5]; 1500 nM in assay [6].

As to `O=C(O)CC[C@H](NC(=O)c1ccc(-c2ccccc2)cc1)C(=O)NCCCCCCO` [Example 8XXX, N^2-(biphenyl-4-ylcarbonyl)-N^1-(6-hydroxyhexyl)-L-α-glutamine], the IC50 was about 50000 nM in assay [1] (Table 1, unit inferred); 930 nM in assay [2] (Table 1); 7900 nM in assay [3]; 30 nM in assay [4] (Table 1); over 200000 nM in assay [5]. In addition, the MMP-1 result in assay [6] was “no inh”.

Consider `O=C(O)CC[C@H](NC(=O)c1ccc(-c2ccccc2)cc1)C(=O)NCc1cccc(-c2ccccn2)c1` [Example 10Q, N^2-(biphenyl-4-ylcarbonyl)-N^1-(3-pyridin-2-ylbenzyl)-L-α-glutamine], for which the IC50 is about 50000 nM in assay [1] (Table 1, unit inferred); 3000 nM in assay [2] (Table 1); 98 nM in assay [4] (Table 1); over 50000 nM in assay [5]. For the same molecule, the MMP-1 result in assay [6] is “no inh”.

As to `COc1cccc(-c2ccc(C(=O)N[C@@H](CCC(=O)O)C(=O)NC(C)(C)Cc3ccccc3)cc2)c1` [Example 17I, N-(1,1-dimethyl-2-phenylethyl)-N^2-[(3′-methoxybiphenyl-4-yl)carbonyl]-L-α-glutamine], the IC50 is about 100000 nM in assay [1] (setting [8]), 217 nM in assay [2] (Table 2) and under 30 nM in assay [4] (Table 2).

Regarding `CCCNC(=O)[C@H](CCC(=O)O)NC(=O)c1ccc2c(c1)Cc1ccccc1-2` [Example 8FFFFF, N^2-(9H-fluoren-2-ylcarbonyl)-N^1-propyl-L-α-glutamine], the results for the IC50 in assay [1] (setting [8]), in assay [2] (Table 2) and in assay [4] (Table 2) were over 100000 nM, 710 nM and 92 nM, respectively.

`CCC(C)NC(=O)[C@H](CCC(=O)O)NC(=O)c1ccc(-c2ccccc2)cc1` (stereo partly drawn) [Example 8BBB, N^2-(1,1′-biphenyl-4-ylcarbonyl)-N^1-(sec-butyl)-L-α-glutamine]: the IC50 in assay [1] (Table 1, unit inferred) was over 50000 nM; in assay [2] (Table 1), 700 nM; in assay [4] (Table 1) it was 32 nM; in assay [6], over 200000 nM. In addition, the inhibition constant (Ki) (in general, the dissociation constant of the complex between target and ligand, obtained from inhibition or displacement) in assay [4] (Table 1, enzyme not given, column follows Agg1 IC50, read-out: Ki) came out at 130 nM. The figures for the bovine in assay [7] (setting [9]) and in assay [7] (setting [10]) were 35% and 0%, respectively. Further, in assay [5] (unit not given), the MMP-14 result was “no inh”.

As to `CC(C)(C)NC(=O)[C@H](CCC(=O)O)NC(=O)c1ccc(-c2ccccc2)cc1` [Example 8SSS, N^2-(biphenyl-4-ylcarbonyl)-N^1-(tert-butyl)-L-α-glutamine], the IC50 is over 50000 nM in assay [1] (Table 1, unit inferred); 470 nM in assay [2] (Table 1); 10300 nM in assay [3]; 64 nM in assay [4] (Table 1).

Regarding `O=C(O)CC[C@H](NC(=O)c1ccc(-c2ccccc2)cc1)C(=O)NC1c2ccccc2-c2ccccc21` [Example 8YYYYY, N^2-(biphenyl-4-ylcarbonyl)-N^1-9H-fluoren-9-yl-L-α-glutamine], the IC50 in assay [1] (setting [8]) is about 20000 nM; in assay [2] (Table 2), 2800 nM; in assay [4] (Table 2) it was 87 nM.

Take `O=C(O)CC[C@H](NC(=O)c1ccc(-c2ccccc2)cc1)C(=O)NCc1ccc(I)cc1` [Example 8LL, N^2-(1,1′-biphenyl-4-ylcarbonyl)-N^1-(4-iodobenzyl)-L-α-glutamine]: the IC50 in assay [1] (Table 1, unit inferred) was 24000 nM; in assay [2] (Table 1), 990 nM; in assay [3] it was 50000 nM; in assay [4] (Table 1), 55 nM. The bovine in assay [7] (setting [9]) is 40%; in assay [7] (setting [10]) it was 0%.

`COc1cc(CNC(=O)C(CCC(=O)O)NC(=O)c2ccc(-c3ccc4c(c3)OCO4)cc2)cc(OC)c1OC` (stereo not shown) [Example 17N, 4-(4-Benzo[1,3]dioxol-5-yl-benzoylamino)-4-(3,4,5-trimethoxy-benzylcarbamoyl)-butyric acid]: the IC50 in assay [1] (setting [8]) turned out to be 11200 nM; in assay [2] (Table 2), 42 nM; in assay [4] (Table 2) it was 40 nM.
